These results are taken from patent US9636338B2, “Phenyl-dihydropyridine derivatives as inhibitors of aldosterone synthase” (Hoffmann-La Roche Inc., priority 2013, dated 2017).

One experiment has as its target human CYP11B1 (Homo sapiens (Human), UniProt P15538). As to the kind of experiment: G-402 cellular enzyme assay, human CYP11B1 (cortisol release, HTRF). The class given is cell-based. Conditions: G-402 cells expressing human CYP11B1; 1 μM Deoxycortisol. The source says: (§1) Herein we identified the use of the G-402 cell line as a host cell to ectopically express (transiently or stably) enzymes of the CYP11 family. Specifically we developed stable G-402 cells expressing ectopically human CYP11B1, human CYP11B2, human CYP11A1, cynmolgus CYP11B1 or cynomolgus CYP11B2 enzyme activity. Importantly the identified cell line G-402 expresses co-factors (adrenodoxin and adrenodoxin reductase) important for the activity of the CYP11 family and no relevant enzyme activity of the CYP11 family (in comparison to H295R cells) was detected in these cells. Therefore the G-402 cell line is uniquely suited as a host cell for the ectopic expression of enzymes from the CYP11 family. G-402 cells can be obtained from ATCC (CRL-1440) and were originally derived from a renal leiomyoblastoma.
(§2) The expression plasmids contains the ORF for either human/cyno CYP11B1 or CYP11B2 under the control of a suitable promoter (CMV-promoter) and a suitable resistance marker (neomycin). Using standard techniques the expression plasmid is transfected into G-402 cells and these cells are then selected for expressing the given resistance markers. Individual cell-clones are then selected and assessed for displaying the desired enzymatic activity using 11-Deoxycorticosterone (Cyp11B2) or 11-Deoxycortisol (Cyp11B1) as a substrate.
(§3) G-402 cells expressing CYP11 constructs were established as described above and maintained in McCoy's 5a Medium Modified, ATCC Catalog No. 30-2007 containing 10% FCS and 400 μg/ml G418 (Geneticin) at 37° C. under an atmosphere of 5% CO2/95% air. Cellular enzyme assays were performed in DMEM/F12 medium containing 2.5% charcoal treated FCS and appropriate concentration of substrate (0.3-10 uM 11-Deoxycorticosterone, 11-Deoxycortisol or Corticosterone). For assaying enzymatic activity, cells were plated onto 96 well plates and incubated for 16 h. An aliquot of the supernatant is then transferred and analyzed for the concentration of the expected product (Aldosterone for CYP11B2; Cortisol for CYP11B1). The concentrations of these steroids can be determined using HTRF assays from CisBio analyzing either Aldosterone or Cortisol.
(§4) Inhibition of the release of produced steroids can be used as a measure of the respective enzyme inhibition by test compounds added during the cellular enzyme assay. The dose dependent inhibition of enzymatic activity by a compound is calculated by means of plotting added inhibitor concentrations (x-axes) vs. measured steroid/product level (y-axes). The inhibition is then calculated by fitting the following 4-parameter sigmoidal function (Morgan-Mercer-Flodin (MMF) model) to the raw data points using the least squares method:
(§5) [formula] wherein, A is the maximum y value, B is the EC50 factor determined using XLFit, C is the minimum y value and D is the slope value.
(§6) EC50 values for compounds claimed herein were tested with the G402-based assay system described. Cyp11B2 enzyme activity was tested in presence of 1 μM Deoxycorticosterone and variable amounts of inhibitors; Cyp11B1 enzyme activity was tested in presence of 1 μM Deoxycortisol and variable amounts of inhibitors.

Another experiment concerns the target CYP11B2 (Homo sapiens (Human), UniProt P19099). As to the kind of experiment: G-402 cellular enzyme assay, human CYP11B2 (aldosterone release, HTRF). The class given is cell-based. Conditions: G-402 cells expressing human CYP11B2; 1 μM Deoxycorticosterone.
Source text: as §1, §2, §3, §4, §5, §6

Sequence of human CYP11B1 (P15538 25-503): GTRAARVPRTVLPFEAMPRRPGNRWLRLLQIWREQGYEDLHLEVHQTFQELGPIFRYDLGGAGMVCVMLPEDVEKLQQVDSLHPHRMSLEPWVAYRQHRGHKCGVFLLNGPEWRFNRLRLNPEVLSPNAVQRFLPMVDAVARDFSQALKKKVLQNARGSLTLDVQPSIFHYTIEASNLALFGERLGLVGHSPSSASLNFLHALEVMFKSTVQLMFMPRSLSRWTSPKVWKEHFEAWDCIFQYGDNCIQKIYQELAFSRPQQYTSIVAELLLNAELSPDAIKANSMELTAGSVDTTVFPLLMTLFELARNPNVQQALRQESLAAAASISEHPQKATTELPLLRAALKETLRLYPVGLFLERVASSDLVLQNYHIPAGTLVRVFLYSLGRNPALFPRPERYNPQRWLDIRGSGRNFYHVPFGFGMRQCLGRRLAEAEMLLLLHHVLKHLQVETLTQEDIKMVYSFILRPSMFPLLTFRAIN
Sequence of CYP11B2 (P19099 25-503): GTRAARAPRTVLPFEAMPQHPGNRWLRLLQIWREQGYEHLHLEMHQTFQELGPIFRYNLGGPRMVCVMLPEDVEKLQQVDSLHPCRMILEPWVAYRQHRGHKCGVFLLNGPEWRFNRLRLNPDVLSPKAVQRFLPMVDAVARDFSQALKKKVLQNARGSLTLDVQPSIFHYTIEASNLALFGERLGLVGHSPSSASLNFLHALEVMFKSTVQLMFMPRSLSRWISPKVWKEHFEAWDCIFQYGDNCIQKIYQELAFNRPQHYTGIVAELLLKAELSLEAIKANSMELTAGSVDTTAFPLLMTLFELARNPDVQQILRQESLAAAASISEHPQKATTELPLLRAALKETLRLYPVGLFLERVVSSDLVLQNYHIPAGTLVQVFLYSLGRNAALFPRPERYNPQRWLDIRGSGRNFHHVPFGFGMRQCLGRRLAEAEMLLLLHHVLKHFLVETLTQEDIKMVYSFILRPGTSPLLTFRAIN

Take `NC1CCc2cncc(-c3ccc(C(F)(F)F)c(F)c3)c21` (racemic) [Example 1, (rac)-4-(3-Fluoro-4-(trifluoromethyl)phenyl)-6,7-dihydro-5H-cyclopenta[c]pyridin-5-amine]: the EC50 on human CYP11B1 was determined as 5350 nM; at CYP11B2, 263 nM.

Consider `OC1CCc2cncc(-c3ccc(C(F)(F)F)c(F)c3)c21` (racemic) [Example 2, (rac)-4-(3-Fluoro-4-(trifluoromethyl)phenyl)-6,7-dihydro-5H-cyclopenta[c]pyridin-5-ol], for which the values for the concentration giving a half-maximal response (EC50) at human CYP11B1 and at CYP11B2 were 2340 nM and 69 nM, respectively.

For `CC1(O)CCc2cncc(-c3ccc(C(F)(F)F)c(F)c3)c21` (racemic) [Example 3, (rac)-4-(3-Fluoro-4-(trifluoromethyl)phenyl)-5-methyl-6,7-dihydro-5H-cyclopenta[c]pyridin-5-ol], the values for the EC50 on human CYP11B1 and on CYP11B2 were 2340 nM and 45 nM, respectively.

As to `OC1(c2ccccc2)CCc2cncc(-c3ccc(C(F)(F)F)c(F)c3)c21` (racemic) [Example 4, (rac)-4-(3-Fluoro-4-(trifluoromethyl)phenyl)-5-phenyl-6,7-dihydro-5H-cyclopenta[c]pyridin-5-ol], the concentration for a half-maximal effect (EC50) was 1960 nM at human CYP11B1 and 50 nM at CYP11B2.

In the case of `OC1CCc2cncc(-c3ccc(C(F)(F)F)cc3F)c21` (racemic) [Example 5, (rac)-4-[2-Fluoro-4-(trifluoromethyl)phenyl]-6,7-dihydro-5H-cyclopenta[c]pyridin-5-ol], the EC50 at human CYP11B1 was found to be 3330 nM; on CYP11B2 it was 133 nM.

Take `CC1(O)CCc2cncc(-c3ccc(C(F)(F)F)cc3F)c21` (racemic) [Example 6, (rac)-4-[2-Fluoro-4-(trifluoromethyl)phenyl]-5-methyl-6,7-dihydrocyclopenta[c]pyridin-5-ol]: the EC50 on human CYP11B1 was more than 30000 nM; at CYP11B2 it was 739 nM.

In the case of `CC(C)C1(O)CCc2cncc(-c3ccc(C(F)(F)F)cc3F)c21` (racemic) [Example 7, (rac)-4-[2-Fluoro-4-(trifluoromethyl)phenyl]-5-isopropyl-6,7-dihydrocyclopenta[c]pyridin-5-ol], the EC50 at human CYP11B1 came out at 14400 nM; on CYP11B2, 740 nM.

With `OC1(c2ccccc2)CCc2cncc(-c3ccc(C(F)(F)F)cc3F)c21` (racemic) [Example 8, (rac)-4-[2-Fluoro-4-(trifluoromethyl)phenyl]-5-phenyl-6,7-dihydrocyclopenta[c]pyridin-5-ol], the concentration giving a half-maximal response (EC50) is 7380 nM on human CYP11B1 and 33 nM on CYP11B2.

As for `CCOC(=O)CC1CCc2cncc(-c3ccc(C(F)(F)F)c(F)c3)c21` (racemic) [Example 11, (rac)-Ethyl 2-[4-[3-fluoro-4-(trifluoromethyl)phenyl]-6,7-dihydro-5H-cyclopenta[c]pyridin-5-yl]acetate], the EC50 was found to be 367 nM at human CYP11B1 and 64 nM on CYP11B2.

Turning to `CNC(=O)CC1CCc2cncc(-c3ccc(C(F)(F)F)c(F)c3)c21` (racemic) [Example 12, (rac)-2-[4-[3-Fluoro-4-(trifluoromethyl)phenyl]-6,7-dihydro-5H-cyclopenta[c]pyridin-5-yl]-N-methyl-acetamide], the EC50 was 1030 nM at human CYP11B1 and 113 nM at CYP11B2.

Consider `O=C(CC1CCc2cncc(-c3ccc(C(F)(F)F)c(F)c3)c21)NCC1CC1` (racemic) [Example 13, (rac)-N-(Cyclopropylmethyl)-2-[4-[3-fluoro-4-(trifluoromethyl)phenyl]-6,7-dihydro-5H-cyclopenta[c]pyridin-5-yl]acetamide], for which the concentration for a half-maximal effect (EC50) is 1150 nM at human CYP11B1 and 60 nM at CYP11B2.

As to `CCCNC(=O)CC1CCc2cncc(-c3ccc(C(F)(F)F)c(F)c3)c21` (racemic) [Example 14, (rac)-2-[4-[3-Fluoro-4-(trifluoromethyl)phenyl]-6,7-dihydro-5H-cyclopenta[c]pyridin-5-yl]-N-propyl-acetamide], the EC50 on human CYP11B1 was determined as 2600 nM; on CYP11B2, 1530 nM.

For the compound `O=C(CC1CCc2cncc(-c3ccc(C(F)(F)F)c(F)c3)c21)N1CCCCC1` (racemic) [Example 15, (rac)-2-[4-[3-Fluoro-4-(trifluoromethyl)phenyl]-6,7-dihydro-5H-cyclopenta[c]pyridin-5-yl]-1-(1-piperidyl)ethanone], the concentration for a half-maximal effect (EC50) at human CYP11B1 was more than 30000 nM; at CYP11B2 it was 832 nM.

In the case of `O=C(CC1CCc2cncc(-c3ccc(C(F)(F)F)c(F)c3)c21)N1CCOCC1` (racemic) [Example 16, (rac)-2-[4-[3-Fluoro-4-(trifluoromethyl)phenyl]-6,7-dihydro-5H-cyclopenta[c]pyridin-5-yl]-1-morpholino-ethanone], the EC50 was found to be 3630 nM on human CYP11B1 and 1020 nM at CYP11B2.

With `O=C(CC1CCc2cncc(-c3ccc(C(F)(F)F)c(F)c3)c21)Nc1ccon1` (racemic) [Example 17, (rac)-2-[4-[3-Fluoro-4-(trifluoromethyl)phenyl]-6,7-dihydro-5H-cyclopenta[c]pyridin-5-yl]-N-isoxazol-3-yl-acetamide], the 50% effective concentration (EC50) at human CYP11B1 was 311 nM; at CYP11B2, 100 nM.

As to `O=C(CC1CCc2cncc(-c3ccc(C(F)(F)F)c(F)c3)c21)Nc1cc[nH]n1` (racemic) [Example 18, (rac)-2-[4-[3-Fluoro-4-(trifluoromethyl)phenyl]-6,7-dihydro-5H-cyclopenta[c]pyridin-5-yl-]-N-(1H-pyrazol-3-yl)acetamide], the concentration giving a half-maximal response (EC50) at human CYP11B1 was 282 nM; at CYP11B2, 597 nM.

As to `O=C(CC1CCc2cncc(-c3ccc(C(F)(F)F)cc3F)c21)N1CCCC1` (racemic) [Example 19, (rac)-2-[4-[2-Fluoro-4-(trifluoromethyl)phenyl]-6,7-dihydro-5H-cyclopenta[c]pyridin-5-yl]-1-pyrrolidin-1-yl-ethanone], the EC50 on human CYP11B1 worked out at 8470 nM; at CYP11B2, 442 nM.

Regarding `CCN(C)C(=O)CC1CCc2cncc(-c3ccc(C(F)(F)F)cc3F)c21` (racemic) [Example 20, (rac)-N-Ethyl-2-[4-[2-fluoro-4-(trifluoromethyl)phenyl]-6,7-dihydro-5H-cyclopenta[c]pyridin-5-yl-]-N-methyl-acetamide], the concentration giving a half-maximal response (EC50) at human CYP11B1 was found to be 6000 nM; at CYP11B2, 213 nM.

Take `CC(C)N(C)C(=O)CC1CCc2cncc(-c3ccc(C(F)(F)F)cc3F)c21` (racemic) [Example 21, (rac)-2-[4-[2-Fluoro-4-(trifluoromethyl)phenyl]-6,7-dihydro-5H-cyclopenta[c]pyridin-5-yl]-N-isopropyl-N-methyl-acetamide]: the EC50 on human CYP11B1 is 8360 nM; on CYP11B2, 413 nM.

For the compound `CN(C(=O)CC1CCc2cncc(-c3ccc(C(F)(F)F)cc3F)c21)C1CC1` (racemic) [Example 22, (rac)-N-Cyclopropyl-2-[4-[2-fluoro-4-(trifluoromethyl)phenyl]-6,7-dihydro-5H-cyclopenta[c]pyridin-5-yl-]-N-methyl-acetamide], the concentration giving a half-maximal response (EC50) was 9440 nM on human CYP11B1 and 957 nM on CYP11B2.

Consider `CCN(C(=O)CC1CCc2cncc(-c3ccc(C(F)(F)F)cc3F)c21)C1CC1` (racemic) [Example 23, (rac)-N-Cyclopropyl-N-ethyl-2-[4-[2-fluoro-4-(trifluoromethyl)phenyl]-6,7-dihydro-5H-cyclopenta[c]pyridin-5-yl]acetamide], for which the EC50 was 8610 nM on human CYP11B1 and 487 nM on CYP11B2.

As to `C[C@H]1CCCN1C(=O)CC1CCc2cncc(-c3ccc(C(F)(F)F)cc3F)c21` (mixture of isomers) [Example 24, (rac)-2-[4-[2-Fluoro-4-(trifluoromethyl)phenyl]-6,7-dihydro-5H-cyclopenta[c]pyridin-5-yl]-1-[(2S)-2-methylpyrrolidin-1-yl]ethanone], the results for the EC50 on human CYP11B1 and at CYP11B2 were 3970 nM and 205 nM, respectively.

For `OC1(c2ccccc2)CCc2cncc(-c3ccc(C(F)(F)F)cc3F)c21` (single isomer, unassigned; (+)) [Example 9, (+)-4-[2-Fluoro-4-(trifluoromethyl)phenyl]-5-phenyl-6,7-dihydrocyclopenta[c]pyridin-5-ol], the values for the EC50 at human CYP11B1 and at CYP11B2 were 35000 nM and 742 nM, respectively.
